We go through one compound from paper PMC5841303, “In silico screening for human norovirus antivirals reveals a novel non-nucleoside inhibitor of the viral polymerase” (Scientific Reports, 2018).

As usually defined, the IC50 is the midpoint of a concentration-inhibition curve.

In data set [1] the target is T1, MNV RdRp (Norovirus, UniProt Q80J95).
T1 construct: made in house
The data set can be described thus: Fluorescent RdRp activity assay, MNV RdRp. The note with it: 0.1–100 µM; read-out: IC50 against MNV RdRp. In kind it is biochemical, murine norovirus. The text has this: (§1) The antiviral activity of the four compounds (11, 13, 42a and 54) were examined for inhibition of RNA polymerases from other viruses spanning three genera of the Caliciviridae family, including Norovirus (human norovirus and MNV), Lagovirus (rabbit haemorrhagic disease virus [RHDV]) and Sapovirus (human sapovirus). […] The protein sequence of the examined calicivirus polymerases has an identity range between 30.2–61.4%, and therefore the broad-spectrum activity of these compounds could be attributed to a common, highly-conserved binding pocket across the RdRps, as has been previously reported with broad-spectrum activity of other site-B binding NNIs[16]. Moreover, the ability of each compound to inhibit the different RdRps in a similar range could be further confirmation of targeting a well-conserved binding site of the Caliciviridae family.
Recombinant calicivirus RdRps (GenBank accession numbers) norovirus GII.Pe/GII.4 Sydney 2012 (KT239579), MNV GV CW1 (DQ285629), RHDV Czech V351 (KF594473.1), and SaV GI.1 Mc114 (AY237422) were expressed and purified as described previously[60],[61]. […]
Fluorescent RdRp activity assays were carried out as previously described[14],[62]. Briefly, RdRp activity was quantified by monitoring the formation of double-stranded RNA (dsRNA) from a single stranded homopolymeric template, poly(C) (Sigma Aldrich, St Louis, MO, USA), using the fluorescent dye PicoGreen (Life Technologies, Carlsbad, CA, USA). […] RdRps were incubated for 10 mins at 30 °C in the presence of the test compounds or the compound vehicle DMSO (0.5% vol/vol) before addition into the reaction mixture, which was then allowed to run 15 min at 30 °C then terminated with 10 mM EDTA, followed by PicoGreen staining and dsRNA quantitation. […] In cases where fluorescent enhancement was recorded for a compound instead of inhibition, a secondary gel-based polymerase activity assay was used as a counter-screen as described below, to exclude the possibility of RdRp activity enhancement (Supplementary Fig. S1). […] Antagonism was calculated using Compusyn software V1.0[59]. […]

The test system of data set [2] is RHDV RdRp. The data set can be described thus: Fluorescent RdRp activity assay, RHDV RdRp. In kind it is biochemical, rabbit haemorrhagic disease virus. The note with it: fixed concentration of 100 µM.
Source text: as §1, with “Moreover, the ability of each compound to inhibit the different RdRps in a similar range could be further confirmation of targeting a well-conserved binding site of the Caliciviridae family.” left out
Fluorescent RdRp activity assays were carried out as previously described[14],[62]. Briefly, RdRp activity was quantified by monitoring the formation of double-stranded RNA (dsRNA) from a single stranded homopolymeric template, poly(C) (Sigma Aldrich, St Louis, MO, USA), using the fluorescent dye PicoGreen (Life Technologies, Carlsbad, CA, USA). […] RdRps were incubated for 10 mins at 30 °C in the presence of the test compounds or the compound vehicle DMSO (0.5% vol/vol) before addition into the reaction mixture, which was then allowed to run 15 min at 30 °C then terminated with 10 mM EDTA, followed by PicoGreen staining and dsRNA quantitation. […] Antagonism was calculated using Compusyn software V1.0[59]. […]

Data set [3] concerns the target human norovirus Sydney 2012 RdRp (Norovirus GII.4 (Norwalk virus, human norovirus), UniProt K4L8Z7). The data set can be described thus: Fluorescent de novo RdRp activity assay (PicoGreen, poly(C) template). The format is biochemical. The procedure: The 62 compounds identified in silico were screened for inhibition of norovirus RdRp activity using an in vitro fluorescent, de novo RdRp assay. Compounds were tested at fixed concentrations of 10 µM and 100 µM, and compared to mock treated samples containing the vehicle only (0.5% DMSO [vol/vol]) (Fig. 4A,B). […] For certain compounds, significant insolubility was observed, coupled with either inherent fluorescence quenching (positive y-axis values on Fig. 4A,B) or enhancement of the fluorescence signal (negative y-axis values).
The newly synthesised compounds, including the re-prepared hit 13 and some synthesis intermediates (Table 1), were initially evaluated on norovirus Sydney 2012 RdRp activity in vitro using a quantitative fluorescent assay. Compounds were tested at a fixed concentration of 10 μM and compared to the relative activity of mock treated samples.
Recombinant calicivirus RdRps (GenBank accession numbers) norovirus GII.Pe/GII.4 Sydney 2012 (KT239579), MNV GV CW1 (DQ285629), RHDV Czech V351 (KF594473.1), and SaV GI.1 Mc114 (AY237422) were expressed and purified as described previously[60],[61]. RdRp resistance mutants were generated using the QuikChange site-directed mutagenesis kit (Agilent Technologies, Santa Clara, CA, USA) and confirmed by Sanger sequencing.
Fluorescent RdRp activity assays were carried out as previously described[14],[62]. Briefly, RdRp activity was quantified by monitoring the formation of double-stranded RNA (dsRNA) from a single stranded homopolymeric template, poly(C) (Sigma Aldrich, St Louis, MO, USA), using the fluorescent dye PicoGreen (Life Technologies, Carlsbad, CA, USA). RdRp assays were performed in 384-well plates, and each reaction mixture contained 400 ng enzyme, 45 µM GTP, 10 ng/µL poly(C) RNA, 2.5 mM MnCl2, 5 mM dithiothreitol, (DTT), 0.01% bovine serum albumin (BSA), and 0.005% Tween 20 in 20 mM Tris-HCl, pH 7.5, with a final reaction volume of 25 µL. The previous published norovirus NNI NIC02 was used as a positive control. RdRps were incubated for 10 mins at 30 °C in the presence of the test compounds or the compound vehicle DMSO (0.5% vol/vol) before addition into the reaction mixture, which was then allowed to run 15 min at 30 °C then terminated with 10 mM EDTA, followed by PicoGreen staining and dsRNA quantitation. GraphPad Prism V6.05 (La Jolla, CA, USA) was used to plot the IC50 values. In cases where fluorescent enhancement was recorded for a compound instead of inhibition, a secondary gel-based polymerase activity assay was used as a counter-screen as described below, to exclude the possibility of RdRp activity enhancement (Supplementary Fig. S1). Primed elongation activity was examined in a gel-based assay as previously described[16],[63] using the RNA template (PE44-NoV, Fig. 4D). Gels were imaged using BioRad (Hercules, CA, U.SA) Geldoc Universal Hood II, running BioRad Image Lab software, V4.1, build 16. Antagonism was calculated using Compusyn software V1.0[59]. 54 and PPNDS (4:1 ratio) were tested alone and together against norovirus Sydney 2012 RdRp.

Data set [4] can be described thus: CellTitre Blue cell viability (cytotoxicity) assay. The format is cell-based. The note with it: mouse, RAW264.7 mouse macrophage cells, 0.5–100 µM, read-out: CC50 (half maximal cytotoxic concentration). The procedure: As mentioned above, the only robust cellular assay available for the evaluation of potential norovirus inhibitors is the closely related MNV assay. […] Consequently, 54 was further assessed to determine the IC50 value against MNV RdRp activity using an in vitro fluorescent assay. […] 54 was then assessed for cytotoxicity against RAW264.7 mouse macrophage cells using a cell viability assay. […] Using the plaque reduction assay, the inhibitory effects of 54 (0.5–50 µM) were examined against MNV plaque formation in cell culture. […] Compound solubility and its cell-membrane permeability properties could be further improved with structure-activity relationship enhancement of the 54 scaffold to facilitate cellular uptake, and therefore to increase antiviral efficacy. Work on this aspect is ongoing, and it will be reported in due course.
MNV-1 (CW1) culture assays were performed as previously described. Replication was examined using plaque assays[58],[64],[65]. Cytotoxicity was examined using a CellTitre Blue (Promega, Madison, WI, USA) viability assay as described previously.

As for `O=C1NN(c2ccccc2)C(=O)/C1=C/c1ccc(-c2ccc(S(=O)(=O)Nc3ccccc3)cc2)o1` [Compound 54], the IC50 in data set [1] worked out at 12.1 µM; in data set [3] it was 5.6 µM. For the same compound, the “inhibition of RHDV RdRp activity” value in data set [2] worked out at 99.0%. Also, in data set [4], the CC50 amounted to 62.8 µM.
